In the supplement of paper PMC11208160:

Assay: recombinant barcode read abundance after kanamycin selection (control-corrected) (log10(CPM+1)); higher = more efficient recombination; sequences stand for … in AGTGCAGAGAAAATCGGCCAGTTTTCTCTGCCTGCAGTCCGCATGCCGT…AGATTTATGCAGCGGACTGCCTTTCTCCCAAAGTGATAAACCGGACAGTATCATGGACCGGTTTTCCCGGTAATCCGTATTTGCAAGGTTGGTTTCACT; site = the 11-nt target
Method in brief: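 A vector carrying a T7-inducible recombinase and the last 73 bp of the bridge RNA received, by Gibson cloning, oligos encoding a promoter, target, barcode and the first 104 bridge RNA bases under J23119. The pooled constructs entered E. coli together with a donor plasmid by electroporation. Selection used chloramphenicol/ampicillin/kanamycin with 0.1 mM IPTG, with chloramphenicol/ampicillin LB agar as the control, each in two replicates. Recombination efficiency is the averaged, control-corrected counts-per-million of barcodes at recombinant junctions, reported as log10(CPM+1).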
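Also: IS621 recombinase and bridge RNA in Escherichia coli cells.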

Sequence | recombinant barcode read abundance (log10)
TATCCGACTTGGGTTCTAACCTGTTGCCG (site TATCCGACTGG) | 0.386
TATCCGACTTGGGTTCTAACCTGTTGCCG (site TATCCGACTTG) | 0.11
TATCCGACTTGGGTTCTAACCTGTTGCCT (site TATCCGACTAG) | 1.12
TATCCGACTTGGGTTCTAACCTGTTGCCT (site TATCCGACTCG) | 0.553
TATCCGACTTGGGTTCTAACCTGTTGCCT (site TATCCGACTGG) | 0.0369
TATCCGACTTGGGTTCTAACCTGTTGCCT (site TATCCGACTTG) | 0.0377
TATGACGCTTGGGTTCTAACCTGTTGCCT (site TAAGACGCTAG) | 0.261
TATGACGCTTGGGTTCTAACCTGTTGCCT (site TACGACGCTAG) | 0.124
TATGACGCTTGGGTTCTAACCTGTTGCCT (site TAGGACGCTAG) | 0.00539
TATGACGCTTGGGTTCTAACCTGTTGCCT (site TATGACGCTAG) | 1.12
TATGCGGCTTGGGTTCTAACCTGTTGCCT (site TATGAGGCTAG) | 0
TATGCGGCTTGGGTTCTAACCTGTTGCCT (site TATGCGGCTAG) | 0.34
TATGCGGCTTGGGTTCTAACCTGTTGCCT (site TATGGGGCTAG) | 0.193
TATGCGGCTTGGGTTCTAACCTGTTGCCT (site TATGTGGCTAG) | 0.11
TATTAATCTTGGGTTCTAACCTGTTGCCT (site CATTAGTCTAG) | 0.0101
TATTAATCTTGGGTTCTAACCTGTTGCCT (site TATTAATCTAG) | 0.0472
TATTATACTTGGGTTCTAACCTGTTGCCT (site TATTATACTAA) | 0.00549
TATTATACTTGGGTTCTAACCTGTTGCCT (site TATTATACTAC) | 0.0157
TATTATACTTGGGTTCTAACCTGTTGCCT (site TATTATACTAG) | 0.035
TATTATACTTGGGTTCTAACCTGTTGCCT (site TATTATACTAT) | 0.467
TATTCACCTTGGGTTCTAACCTGTTGCCT (site AATTCACCTAG) | 0.0667
TATTCACCTTGGGTTCTAACCTGTTGCCT (site CATTCACCTAG) | 0.0903

Sequence | recombinant barcode read abundance (log10)
TATTCACCTTGGGTTCTAACCTGTTGCCT (site GATTCACCTAG) | 0.0774
TATTCACCTTGGGTTCTAACCTGTTGCCT (site TATTCACCTAG) | 0.358
TATTCTCCTTGGGTTCTAACCTGTTGCCT (site TATTCTCCTAA) | 0.212
TATTCTCCTTGGGTTCTAACCTGTTGCCT (site TATTCTCCTAC) | 0.0221
TATTCTCCTTGGGTTCTAACCTGTTGCCT (site TATTCTCCTAG) | 0.0657
TATTCTCCTTGGGTTCTAACCTGTTGCCT (site TATTCTCCTAT) | 0.0206
TATTCTCCTTGGGTTCTAACCTGTTGCGT (site TATTCTCCTAA) | 0.0153
TATTCTCCTTGGGTTCTAACCTGTTGCGT (site TATTCTCCTAC) | 0.243
TATTCTCCTTGGGTTCTAACCTGTTGCGT (site TATTCTCCTAG) | 0.12
TATTCTCCTTGGGTTCTAACCTGTTGCGT (site TATTCTCCTAT) | 0.0406
TATTCTCCTTGGGTTCTAACCTGTTGCTT (site TATTCTCCTAA) | 0.266
TATTCTCCTTGGGTTCTAACCTGTTGCTT (site TATTCTCCTAC) | 0.0156
TATTCTCCTTGGGTTCTAACCTGTTGCTT (site TATTCTCCTAG) | 0.0207
TATTCTCCTTGGGTTCTAACCTGTTGCTT (site TATTCTCCTAT) | 0.0253
TATTGGACTTGGGTTCTAACCTGTTGCAG (site TATTGGACTAT) | 0.264
TATTGGACTTGGGTTCTAACCTGTTGCAG (site TATTGGACTCT) | 1.05
TATTGGACTTGGGTTCTAACCTGTTGCAG (site TATTGGACTGT) | 0.0393
TATTGGACTTGGGTTCTAACCTGTTGCAG (site TATTGGACTTT) | 0.14
TATTTAGCTTGGGTTCTAACCTGTTGCGG (site ACCAACACTAA) | 0.0937
TATTTAGCTTGGGTTCTAACCTGTTGCGG (site TATTTAGCTCC) | 0.835
TATTTGCCTTGGGTTCTAACCTGTTGCCT (site TAATTGCCTAG) | 0.0398
TATTTGCCTTGGGTTCTAACCTGTTGCCT (site TACTTGCCTAG) | 0

Sequence | recombinant barcode read abundance (log10)
TATTTGCCTTGGGTTCTAACCTGTTGCCT (site TAGTTGCCTAG) | 0.408
TATTTGCCTTGGGTTCTAACCTGTTGCCT (site TATTTGCCTAG) | 0
TCAATAGCTTGGGTTCTAACCTGTTGCAC (site AAGCCGCCTAA) | 0.204
TCAATAGCTTGGGTTCTAACCTGTTGCAC (site TCAATAGCTGT) | 1.28
TCACACTCTTGGGTTCTAACCTGTTGCCT (site TCACACTCTAG) | 1.59
TCACACTCTTGGGTTCTAACCTGTTGCCT (site TCCCACTCTAG) | 0.111
TCACACTCTTGGGTTCTAACCTGTTGCCT (site TCGCACTCTAG) | 0.101
TCACACTCTTGGGTTCTAACCTGTTGCCT (site TCTCACTCTAG) | 0.114
TCACCACCTTGGGTTCTAACCTGTTGCCT (site GAACCACCTAG) | 0.028
TCACCACCTTGGGTTCTAACCTGTTGCCT (site TCACCACCTAG) | 0.744
TCACCTTCTTGGGTTCTAACCTGTTGCCT (site TCACCTTCTAG) | 0.274
TCACCTTCTTGGGTTCTAACCTGTTGCCT (site TCACTTCCTAG) | 0.0695
TCACGTCCTTGGGTTCTAACCTGTTGCAG (site TCACGTCCTCT) | 0.829
TCACGTCCTTGGGTTCTAACCTGTTGCAG (site TCGCGTCCTCT) | 0.183
TCAGCATCTTGGGTTCTAACCTGTTGCCT (site TCAGAATCTAG) | 0.0342
TCAGCATCTTGGGTTCTAACCTGTTGCCT (site TCAGCATCTAG) | 0.457
TCAGCATCTTGGGTTCTAACCTGTTGCCT (site TCAGGATCTAG) | 0.0504
TCAGCATCTTGGGTTCTAACCTGTTGCCT (site TCAGTATCTAG) | 0.0947
TCAGGATCTTGGGTTCTAACCTGTTGCCT (site TCAGAATCTAG) | 0.201
TCAGGATCTTGGGTTCTAACCTGTTGCCT (site TCAGCATCTAG) | 0.0751
TCAGGATCTTGGGTTCTAACCTGTTGCCT (site TCAGGATCTAG) | 0.679
TCAGGATCTTGGGTTCTAACCTGTTGCCT (site TCAGTATCTAG) | 0.291
